For assay [1], the target named is lactase derived from Escherichia coli (β-galactosidase; enzyme number 3. 2. 1. 23) (Escherichia coli, UniProt P00722). To be noted: E. coli lactase, cited from earlier work.
Assay [2] concerns the target T1, lactase originated from Aspergillus oryzae (extracellular enzyme, unimmobilized) (Aspergillus oryzae, UniProt Q2UCU3).
T1 construct: obtained from a strain belonging to Aspergillus oryzae as extracellular enzyme; host or cells: Aspergillus oryzae strain (natural producer, secreted)
In words: Km and Ki of free (unimmobilized) Aspergillus oryzae lactase. The class given is biochemical. The following applies: for pKi: substrate, lactose, free enzyme, read-out: Inhibition constant Ki by galactose. The protocol: The lactase used in the present invention is obtained from a strain belonging to Aspergillus oryzae as extracellular enzyme, and has the following characteristics:
Km = 0.10 ± 0.05 mole/ℓ (pH 4.5, 30°C, substrate; lactose), and Km = 0.3 ± 0.15 mole/ℓ (pH 6.65, 30°C, substrate; lactose).
Ki = (6 ± 3) x 10^-3 mole/ℓ (pH 4.5, 30°C, substrate; lactose), and Ki = (4 ± 3) x 10^-3 mole/ℓ (pH 6.65, 30°C, substrate; lactose).
In the present specification, 1 ILU is defined as the amount of lactase which produces […] per minute of glucose at pH 4.5 at 30°C when a 13.3 w/v % of lactose solution is used as the substrate. The quantity of glucose thus prepared is defined by using glucose oxidase-peroxidase- dye system. When the measurement of the activity (unit) is carried out at a different pH or temperature, the pH or the temperature will specifically be given in each case.

Assay [3] addresses T2, immobilized lactase: Aspergillus oryzae lactase covalently attached through glutaraldehyde on macroporous phenol-formaldehyde based anion-exchange resin (Aspergillus oryzae, UniProt Q2UCU3).
T2 construct: obtained from a strain belonging to Aspergillus oryzae as extracellular enzyme; host or cells: Aspergillus oryzae strain (natural producer, secreted)
In words: Km and Ki of the immobilized lactase, general properties. The following applies: pH 6.65, 30°C, substrate; lactose; immobilized enzyme; read-out: Inhibition constant by galactose Ki. The format is biochemical. As to the method:
The enzymatical properties of the present immobilized lactase are given below.
Km = 0.2 ± 0.1 mole/ℓ (both pH 4.5, 30°C, substrate; lactose, and pH 6.65, 30°C, substrate; lactose)
Ki = (8 ± 5) x […] mole/ℓ (pH 4.5, 30°C, substrate; lactose) and Ki = (3 ± 2) x 10^-2 mole/ℓ (pH 6.65, 30°C, substrate; lactose).
Both values of Km and Ki for the immobilized enzyme tend to increase with increase in the concentration of the glutaraldehyde solution used for the treatment, and moreover, in the measurement thereof, it is considerably difficult to obtain the results with good reproducibility. Therefore, the above value given for Km and Ki should be understood taking this respect into consideration."

The source of these data is patent EP0037667A2, “Immobilized lactase, its preparation and use” (priority 1980, dated 1981).

pKi: −log10 of the molar value. Where two headings read alike, the source gives them in different places.

T1 sequence (Q2UCU3 19-1005): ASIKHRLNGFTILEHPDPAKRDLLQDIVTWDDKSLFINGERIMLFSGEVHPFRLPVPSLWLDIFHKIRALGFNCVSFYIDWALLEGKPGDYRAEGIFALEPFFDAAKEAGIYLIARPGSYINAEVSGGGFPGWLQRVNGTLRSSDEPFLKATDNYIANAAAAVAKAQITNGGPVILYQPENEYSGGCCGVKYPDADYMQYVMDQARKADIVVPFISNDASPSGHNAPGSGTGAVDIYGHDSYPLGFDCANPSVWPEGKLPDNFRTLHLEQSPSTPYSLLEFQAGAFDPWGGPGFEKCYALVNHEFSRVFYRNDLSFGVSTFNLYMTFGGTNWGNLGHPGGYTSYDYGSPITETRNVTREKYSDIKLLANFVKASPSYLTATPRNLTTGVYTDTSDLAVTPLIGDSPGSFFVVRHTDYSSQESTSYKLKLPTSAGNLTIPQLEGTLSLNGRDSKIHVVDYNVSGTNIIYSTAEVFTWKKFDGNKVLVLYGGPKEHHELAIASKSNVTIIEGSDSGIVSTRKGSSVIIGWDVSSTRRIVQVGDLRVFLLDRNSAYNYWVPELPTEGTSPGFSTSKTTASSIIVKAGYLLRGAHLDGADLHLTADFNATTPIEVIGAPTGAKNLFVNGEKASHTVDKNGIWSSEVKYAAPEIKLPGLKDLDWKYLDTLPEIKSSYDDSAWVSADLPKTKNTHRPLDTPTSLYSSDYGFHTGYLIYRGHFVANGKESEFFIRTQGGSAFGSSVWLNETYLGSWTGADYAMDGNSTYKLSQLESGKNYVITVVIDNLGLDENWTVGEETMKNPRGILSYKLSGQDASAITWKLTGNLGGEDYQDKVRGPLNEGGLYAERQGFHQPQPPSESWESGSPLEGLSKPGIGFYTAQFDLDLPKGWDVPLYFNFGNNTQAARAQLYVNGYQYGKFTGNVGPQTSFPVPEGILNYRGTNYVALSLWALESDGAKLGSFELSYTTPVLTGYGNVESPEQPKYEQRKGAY
lactase derived from Escherichia coli (β-galactosidase; enzyme number 3. 2. 1. 23), sequence (P00722 2-1024): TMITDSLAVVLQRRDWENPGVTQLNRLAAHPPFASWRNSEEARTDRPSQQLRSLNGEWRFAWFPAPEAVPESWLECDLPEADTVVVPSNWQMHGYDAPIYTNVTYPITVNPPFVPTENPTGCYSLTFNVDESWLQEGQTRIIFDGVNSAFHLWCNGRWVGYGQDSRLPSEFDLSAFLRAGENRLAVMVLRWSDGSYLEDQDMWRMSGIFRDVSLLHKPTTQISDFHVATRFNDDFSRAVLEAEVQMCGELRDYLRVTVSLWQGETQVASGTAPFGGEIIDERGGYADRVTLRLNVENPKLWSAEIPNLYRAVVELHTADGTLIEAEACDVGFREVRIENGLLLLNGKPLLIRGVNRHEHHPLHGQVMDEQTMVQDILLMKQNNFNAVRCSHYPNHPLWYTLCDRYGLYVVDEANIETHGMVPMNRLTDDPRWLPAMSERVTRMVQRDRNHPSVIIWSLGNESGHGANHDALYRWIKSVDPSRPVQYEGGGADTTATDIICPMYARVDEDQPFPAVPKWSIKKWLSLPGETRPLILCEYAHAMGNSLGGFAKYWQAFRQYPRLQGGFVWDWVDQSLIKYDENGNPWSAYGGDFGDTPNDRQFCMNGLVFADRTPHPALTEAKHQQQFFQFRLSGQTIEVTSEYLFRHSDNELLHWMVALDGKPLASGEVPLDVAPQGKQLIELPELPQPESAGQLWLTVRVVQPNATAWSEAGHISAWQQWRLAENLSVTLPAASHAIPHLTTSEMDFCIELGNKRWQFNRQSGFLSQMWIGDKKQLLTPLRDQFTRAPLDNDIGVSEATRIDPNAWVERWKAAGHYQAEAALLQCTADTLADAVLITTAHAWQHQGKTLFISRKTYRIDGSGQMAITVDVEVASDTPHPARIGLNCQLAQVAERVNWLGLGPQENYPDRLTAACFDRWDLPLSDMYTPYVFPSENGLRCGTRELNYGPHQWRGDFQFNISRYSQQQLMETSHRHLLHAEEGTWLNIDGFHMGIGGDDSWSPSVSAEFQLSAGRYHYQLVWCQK
T2 sequence (Q2UCU3 19-1005): as the sequence (Q2UCU3 19-1005) above

`O=[N+]([O-])c1ccccc1O[C@@H]1O[C@H](CO)[C@H](O)[C@H](O)[C@H]1O` [ONPG, ortho-nitrophenyl-β-D-galactopyranoside, reference compound]: the Michaelis constant (Km) in assay [1] (read-out: Michaelis constant Km (substrate; ONPG)) was 0.95 mM.
As for `OC[C@H]1OC(O)[C@H](O)[C@@H](O)[C@H]1O` (stereo partly drawn) [galactose], the negative-log Ki (pKi) is 2.22 in assay [2] (pH 4.5, 30°C); 2.40 in assay [2] (pH 6.65, 30°C); 1.52 in assay [3].
Take `OC[C@H]1O[C@@H](O[C@H]2[C@H](O)[C@@H](O)C(O)O[C@@H]2CO)[C@H](O)[C@@H](O)[C@H]1O` (stereo partly drawn) [lactose]: the Michaelis constant (Km) in assay [1] (read-out: Michaelis constant Km (substrate; lactose)) was 7.5 mM; in assay [2] (pH 4.5, 30°C, dry lactase powder used in Example 3 (Shinnihon Kagaku Kogyo, 80 ILU/mg)), 100 mM.

As usually defined, the Km is the concentration of substrate that gives half-maximal velocity. In general, pKi refers to the Ki on a negative log10 scale, so that one unit is a factor of ten.
